Data: US20250263404A1, “AMINOPYRIDINES AS ACTIVATORS OF PI3 KINASE” (UCL Business Ltd, priority 2021, published 2025)

Tests used:
G106V mutant of p110α = biological target: T1, G106V mutant of p110α (Homo sapiens, UniProt P42336, G106V); test: ADP-Glo kinase assay, oncogenic mutant G106V; assay type: biochemical; details: compared with pY
T1 construct: Full-length p110α was expressed in a complex with full-length p85α (for biochemistry and HDX-MS); 6xHis followed by TEV protease site (N); made in house; host or cells: Spodoptera frugiperda Sf9 (plasmid JB35)
Experimental: Co-stimulation of 1938 with pY led to an additive activatory effect for G106V, but not for the N345K and E545K mutants (FIG. 1f/FIG. 22f).
Kinase reactions were performed with ADP-Glo kinase assay kit (Promega Corporation). The enzyme, substrate and compounds were diluted in reaction buffer (20 mM HEPES, 50 mM NaCl, 50 mM KCl, 3 mM MgCl2, 1 mM EGTA, 1 mM TCEP, pH 7.4). Final concentrations of PI3Kα and PI3Kδ used were 25 nM and 50 nM for PI3Kβ. Liposomes (5% brain PI(4,5)P2, 20% brain phosphatidylserine, 45% brain phosphatidylethanolamine, 15% brain phosphatidylcholine, 10% cholesterol, 5% sphingomyelin (Avanti Polar Lipids)) were used at a final concentration of 1 mg/ml. The pY sequence is ESDGG(pY)[…](pY)[…].
For characterisation of the effects of 1938 on in vitro PI3K enzymology, all reactions were performed at room temperature with 384 white-polystyrene plates (Corning #3574). The final DMSO concentration in the assay was between 0.5%-1.8%. The reaction mixture contained 2 μl PI3K enzyme, 2 μl compound and/or pY and 2 μl of liposome substrate mixed with ATP. ATP was used at a final concentration of 200 μM, unless otherwise stated. The enzyme and compounds were pre-incubated for 10 min prior to addition of substrate. […] For enzyme kinetic calculations, data was expressed as velocity (pmol of ADP generated/sec). […]

PI3Kβ = biological target: T2, PI3Kβ (Homo sapiens, UniProt P42338); test: ADP-Glo in vitro lipid kinase assay, PI3Kβ; assay type: biochemical
T2 construct: Full-length p110β/p85α and p110δ/p85α were cloned and expressed in a similar manner; Strep-tag followed by TEV protease site (N, cleaved yes); made in house; host or cells: Spodoptera frugiperda Sf9 (plasmids OP832 and OP809)
Experimental: The effect of 1938 on the in vitro lipid kinase activity of p85α in complex with p110α, p110β or p110δ (further referred to as PI3Kα, PI3Kβ and PI3Kδ) was tested. As a positive control, a bis-phosphorylated phosphopeptide (a PDGF-receptor-derived peptide phosphorylated on Tyr-740 and Tyr-751, hereafter referred to as pY peptide) was used to mimic engagement of the p85α SH2 domains with tyrosine-phosphorylated peptides in membrane-bound receptors and adaptor proteins, known to activate the PI3Kα complex.
Kinase reactions were performed with ADP-Glo kinase assay kit (Promega Corporation). The enzyme, substrate and compounds were diluted in reaction buffer (20 mM HEPES, 50 mM NaCl, 50 mM KCl, 3 mM MgCl2, 1 mM EGTA, 1 mM TCEP, pH 7.4). Final concentrations of PI3Kα and PI3Kδ used were 25 nM and 50 nM for PI3Kβ. […]
For compound profiling, the reaction mixture contained 2 μl PI3K enzyme, 2 μl compound and/or pY and 2 μl of liposome substrate mixed with ATP. […] Luminescence was read using a Sense (Hidex) plate reader. […]
For characterisation of the effects of 1938 on in vitro PI3K enzymology, all reactions were performed at room temperature with 384 white-polystyrene plates (Corning #3574). […] For enzyme kinetic calculations, data was expressed as velocity (pmol of ADP generated/sec). […]

[1] = test system: exposed rat sciatic nerves; test: pAKT induction in exposed rat sciatic nerves; assay type: in vivo; details: direct injection or bathing, 5 μM
Experimental: Stimulated by these observations, we next tested 1938 in the sciatic nerve crush model in the rat, an in vivo model of peripheral nerve injury and regeneration. […] Immediately after the nerve crush (FIG. 5e, i-ii), 1938 was delivered via a single intraneural injection into the proximal crush site (FIG. 5e, iii) and via a minipump implanted adjacent to the nerve (FIG. 5e, iv), loaded with 1938 solution, for continuous delivery for the duration of the experiment. Analyses were conducted 3 weeks after injury.
Test experiment to assess if 1938 could induce pAkt generation in exposed rat sciatic nerves, adult male Sprague Dawley rats (>250 g; n=2) were anaesthetised using isoflurane, the left leg sciatic nerve was exposed and injected with 2 μl vehicle (sterile dH2O) or 1938 (5 μM in sterile dH2O). Meanwhile the sciatic nerve of the right leg was exposed and bathed in 250 μl of vehicle (sterile dH2O) or 1938 (5 μM in sterile dH2O). Each animal received one vehicle and one compound treatment. The treatments were left on for 30 min prior to washing the bathed nerves with sterile PBS and culling via sodium pentobarbital injection according to local regulations, the animal by schedule 1. Nerves were then harvested, washed in fresh 4° C. PBS and stored in a fresh vial before snap freezing in liquid nitrogen. […]

T2 sequence (P42338 whole entry, species assumed): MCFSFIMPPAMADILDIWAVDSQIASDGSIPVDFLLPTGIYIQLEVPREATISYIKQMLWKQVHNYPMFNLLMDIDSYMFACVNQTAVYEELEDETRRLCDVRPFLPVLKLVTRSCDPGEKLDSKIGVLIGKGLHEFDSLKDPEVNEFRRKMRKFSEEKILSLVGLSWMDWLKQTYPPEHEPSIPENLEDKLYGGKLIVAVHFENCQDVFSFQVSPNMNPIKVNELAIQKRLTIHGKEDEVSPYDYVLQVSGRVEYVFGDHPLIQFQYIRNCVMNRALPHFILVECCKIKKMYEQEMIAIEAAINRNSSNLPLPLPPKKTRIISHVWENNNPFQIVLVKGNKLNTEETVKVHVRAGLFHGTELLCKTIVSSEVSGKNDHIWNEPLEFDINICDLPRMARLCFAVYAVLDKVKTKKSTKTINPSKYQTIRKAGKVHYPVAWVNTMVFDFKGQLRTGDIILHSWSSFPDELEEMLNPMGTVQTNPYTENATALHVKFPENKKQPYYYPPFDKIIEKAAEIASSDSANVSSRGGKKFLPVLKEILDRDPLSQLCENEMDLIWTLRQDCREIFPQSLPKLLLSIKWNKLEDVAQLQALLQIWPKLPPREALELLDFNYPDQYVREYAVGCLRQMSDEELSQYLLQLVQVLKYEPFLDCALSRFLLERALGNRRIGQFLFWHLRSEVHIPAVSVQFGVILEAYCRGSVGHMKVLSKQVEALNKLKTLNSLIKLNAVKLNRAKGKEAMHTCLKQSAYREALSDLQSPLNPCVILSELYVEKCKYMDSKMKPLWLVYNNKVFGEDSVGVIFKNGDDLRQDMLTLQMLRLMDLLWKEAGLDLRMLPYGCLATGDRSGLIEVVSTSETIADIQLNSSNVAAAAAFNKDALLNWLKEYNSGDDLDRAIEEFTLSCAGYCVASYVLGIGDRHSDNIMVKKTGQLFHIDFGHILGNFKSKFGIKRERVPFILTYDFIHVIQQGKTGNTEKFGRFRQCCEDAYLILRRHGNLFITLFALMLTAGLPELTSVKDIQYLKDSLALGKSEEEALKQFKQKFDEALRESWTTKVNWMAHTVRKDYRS
T2 sequence (P27986 whole entry partner, species assumed): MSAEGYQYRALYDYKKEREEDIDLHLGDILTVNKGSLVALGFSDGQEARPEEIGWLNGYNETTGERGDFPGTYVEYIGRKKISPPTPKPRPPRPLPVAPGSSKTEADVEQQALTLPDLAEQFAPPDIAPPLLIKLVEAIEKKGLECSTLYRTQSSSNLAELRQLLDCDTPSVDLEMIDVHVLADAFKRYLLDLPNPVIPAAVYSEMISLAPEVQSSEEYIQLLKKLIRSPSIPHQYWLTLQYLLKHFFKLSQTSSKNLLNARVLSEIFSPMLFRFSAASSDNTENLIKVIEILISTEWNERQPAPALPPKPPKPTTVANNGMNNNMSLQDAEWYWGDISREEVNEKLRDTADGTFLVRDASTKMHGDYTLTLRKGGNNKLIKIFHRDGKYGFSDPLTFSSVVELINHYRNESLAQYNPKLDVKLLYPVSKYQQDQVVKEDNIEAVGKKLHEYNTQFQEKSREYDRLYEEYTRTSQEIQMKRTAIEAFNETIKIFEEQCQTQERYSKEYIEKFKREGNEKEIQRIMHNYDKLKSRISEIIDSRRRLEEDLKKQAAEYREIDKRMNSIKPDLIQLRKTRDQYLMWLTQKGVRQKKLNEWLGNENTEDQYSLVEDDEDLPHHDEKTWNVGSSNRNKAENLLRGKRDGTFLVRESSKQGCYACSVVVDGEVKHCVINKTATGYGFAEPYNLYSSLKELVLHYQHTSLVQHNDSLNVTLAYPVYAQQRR
T1 sequence (P42336 whole entry G106V): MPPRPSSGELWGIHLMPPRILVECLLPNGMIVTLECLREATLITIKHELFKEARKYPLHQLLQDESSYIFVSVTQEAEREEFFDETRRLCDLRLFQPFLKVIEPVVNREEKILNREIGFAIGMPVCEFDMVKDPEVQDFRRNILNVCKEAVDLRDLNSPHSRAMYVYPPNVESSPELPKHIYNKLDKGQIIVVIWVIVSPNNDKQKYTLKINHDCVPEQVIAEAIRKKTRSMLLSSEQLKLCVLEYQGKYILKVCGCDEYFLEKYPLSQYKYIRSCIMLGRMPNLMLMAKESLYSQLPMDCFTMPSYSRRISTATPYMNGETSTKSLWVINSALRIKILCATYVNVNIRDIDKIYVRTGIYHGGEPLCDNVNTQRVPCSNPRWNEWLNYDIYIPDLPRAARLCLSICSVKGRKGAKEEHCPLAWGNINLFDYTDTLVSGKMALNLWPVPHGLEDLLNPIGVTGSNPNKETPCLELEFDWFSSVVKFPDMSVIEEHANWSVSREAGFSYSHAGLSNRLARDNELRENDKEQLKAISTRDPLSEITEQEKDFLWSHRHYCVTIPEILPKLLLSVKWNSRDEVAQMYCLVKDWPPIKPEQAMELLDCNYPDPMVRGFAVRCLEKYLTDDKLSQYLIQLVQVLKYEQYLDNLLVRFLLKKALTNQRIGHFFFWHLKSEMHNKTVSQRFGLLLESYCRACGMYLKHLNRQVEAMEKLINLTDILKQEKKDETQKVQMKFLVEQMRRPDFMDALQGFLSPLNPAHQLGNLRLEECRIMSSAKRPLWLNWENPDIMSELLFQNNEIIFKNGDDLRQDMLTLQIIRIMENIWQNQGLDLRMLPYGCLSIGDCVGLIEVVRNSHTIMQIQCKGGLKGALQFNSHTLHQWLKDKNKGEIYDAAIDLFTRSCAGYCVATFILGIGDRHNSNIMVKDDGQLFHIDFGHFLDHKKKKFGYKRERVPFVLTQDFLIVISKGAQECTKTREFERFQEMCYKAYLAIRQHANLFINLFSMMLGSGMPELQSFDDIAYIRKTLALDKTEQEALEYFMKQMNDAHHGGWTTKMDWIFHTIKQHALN
T1 sequence (P27986 whole entry partner): as the sequence (P27986 whole entry partner, species assumed) above

CCN1CCN(c2ccc(Nc3cc(Nc4cccc5c4N(C(C)=O)CC5)ccn3)cc2)CC1 [Example 1938]
activation of G106V mutant (G106V mutant of p110α): levels comparable with stimulation with pY | effect on in vitro lipid kinase activity of PI3Kβ (PI3Kβ): not PI3Kβ | pAKT in sciatic nerve [1]: induction of pAKT
